# Where two headings read alike, the source gives them in different places. Starred links: 1 amine or outer side, 2 acyl side, 3 side chain; linkers in the order of their positions; H or OH if unused. Residues, ends and D or L forms follow the SMILES beside them. CO = O=C([*:1])[*:2]
# Tested on: SARS-CoV-2-S pseudotyped particles (PP)
# Format: cell-based
SMILES,SARS-2 PP Efficacy,SARS-2 PP Efficacy (listed as otamixaban)
"CCOC(=O)c1ccc(OC(=O)CCCCCNC(=N)N)cc1 [NCGC00025297, Gabexate]",0%,
"N=C(N)c1ccc2cc(OC(=O)c3ccc(N=C(N)N)cc3)ccc2c1 [NCGC00160398, Nafamostat]",100%,
"CN(C)C(=O)COC(=O)Cc1ccc(OC(=O)c2ccc(NC(=N)N)cc2)cc1 [NCGC00167526, Camostat]",100%,
"COC(=O)[C@H](Cc1cccc(C(=N)N)c1)[C@@H](C)NC(=O)c1ccc(-c2cc[n+]([O-])cc2)cc1 [NCGC00378763, Otamixaban]",50%,about 50%
"N=C(N)c1ccc2nc(-c3cc(CC(=O)N[C@@H](CC(=O)O)C(=O)O)cc(-c4cc(S(N)(=O)=O)ccc4O)c3O)[nH]c2c1 [NCGC00387860, PCI-27483]",about 60%,
"CC(C)[C@H](NC(=O)[C@H](CCCNC(=N)N)NC(=O)N[C@@H](Cc1ccccc1)C(=O)O)C(=O)N[C@H](C=O)CCCNC(=N)N [NCGC00390338, Antipain] ({Phe-CO}-Arg-Val-Arg-aldehyde)",about 60%,

# From publication PMC7781311 (bioRxiv, 2021)
